According to PubChem BioAssay (NCI):
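Grown in 96-well plates, cells were treated for 48 hours with each compound at five concentrations. Insufficient inhibition: endpoint recorded as highest concentration tested. The concentration for full growth arrest is given as TGI.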

Legend:
Test in all cases: NCI-60 cell line screen, 48 h
[1] = system: MOLT-4 leukemia
[2] = system: M14 melanoma
[3] = system: NCI-H460 lung
[4] = system: A549 NSCLC
[5] = system: LOX IMVI melanoma
[6] = system: RPMI-8226 leukemia
[7] = system: OVCAR-5 ovarian
[8] = system: SK-MEL-5 melanoma
[9] = system: HCT-15 colon
[10] = system: MDA-MB-435
[11] = system: RXF 393 renal
[12] = system: SK-MEL-28 melanoma
[13] = system: CCRF-CEM leukemia

Structure (SMILES)	TGI [1] [µM]	TGI [2] [µM]	TGI [3] [µM]	TGI [4] [µM]	TGI [5] [µM]	TGI [6] [µM]	TGI [7] [µM]	TGI [8] [µM]	TGI [9] [µM]	TGI [10] [µM]	TGI [11] [µM]	TGI [12] [µM]	TGI [13] [µM]
Cc1cc(Cl)nc2nc(Cl)c(N)cc12	> 22.6	25.6	5.43	37.2	3.63	5.74	34	24.6	4.6	4.64	> 32	6.21	> 19.7
Cc1cc(S(=O)(=O)N2CCNNC2=O)c(S)cc1Cl	> 100	> 100	> 100	> 100	> 100	> 100	> 100	> 100	> 100	> 100	40.9	59.6	> 100
COc1cc2c(c(OC)c1OC)C(=O)[C@@H]1[C@H]2N1C(=O)NCCCl	> 100	> 100	> 100	> 100	> 100	> 100	> 100	> 100	> 100	> 100	> 100	> 100	> 100
CC(=O)Nc1ccc2nc(-c3ccccn3)c(-c3ccccn3)nc2c1	> 100	> 100	> 100	> 100	> 100	> 100	> 100	> 100	> 100	> 100	> 100	> 100	> 100
COc1ccc(/C=C/C(=O)/C=C/c2ccc(OC)cc2OC)c(OC)c1	40	36.2	24	46.3	18.1	18.6	36.5	16.9	20	8.24	37.1	22.5	13.5
Cc1nc(SCC(=O)Nc2ccc(Cl)cc2)c2sc(=S)n(-c3ccccc3)c2n1	> 10	> 10	> 10	> 10	> 10	> 10	> 10	> 10	> 10	> 10	> 10	> 10	> 10
CC(=O)c1[nH]c(NC(C)C)c(C(=S)Nc2ccccc2)c1N	> 100	39.7	> 100	94.3	37.8	27.9	> 100	42.2	> 100	49	50.3	87.7	72.9
CCCNC(=S)N/N=C(\C)c1ccc(S(=O)(=O)N(C)c2ccccc2)cc1	> 100	> 87.4	> 100	> 100	> 100	> 31.6	> 100	> 100	> 100	> 100	38.2	> 100	> 31.6
Cc1ccc(C2(c3ccc(Cl)cc3)c3ccccc3C3=NCCN32)cc1 (configuration not stated)	20.9	16.2	20.7	25.3	27.7	28.9	26	23.2	24	10.1	10.9	35.9	19.5
O=C(Cc1ccccc1F)NC1=C(Cl)C(=O)c2ccccc2C1=O	6.47	7.41	21.7	15.7	5.99	19.1	21.2	4.37	13.3	10.4	0.816	9.6	7.36
CCNC(=O)c1cc(Cl)ccc1NC(=O)C12CC3CC(CC(C3)C1)C2	> 100	> 100	> 100	> 100	> 100	86.7	> 100	76.1	> 100	> 100	43.9	> 100	> 100
COc1ccc(/C=C2/CSCC3=C2NC(=S)NC3c2ccc(OC)c(OC)c2OC)c(OC)c1OC (configuration not stated)	> 100	32.6	> 100	95.9	58.3	> 100	57.5	29.8	> 100	61.4	52.9	81.9	> 100
CCCCCCCCCCCC(=O)OC[C@H](C[As](=O)(O)O)OC(=O)CCCCCCCCCCC	> 81.4	10.5	16.9	20.5	23.6	> 76.8	32.7	4.54	23.9	9.5	5.68	11.9	> 100
O=C1c2ccccc2C(=O)N1CCSCC(CO)SCCN1C(=O)c2ccccc2C1=O (configuration not stated)	> 100	> 100	> 100	> 100	> 100	> 100	> 100	> 100	> 100	> 100	> 100	> 100	> 100
